Measurements published in patent US20030096893A1, “Oxidatively drying coating composition” (priority 2001, published 2003).
Where two headings read alike, the source gives them in different places.

Test: Solubility of the ligand in Shellsol D40 at 23° C.
Format: physicochemical
Procedure: This condensation product was added to Shellsole® D40 at a temperature of 23° C. The solubility of the ligand was less than 10 g/l.
Comparative Example A was repeated using 2-hydroxy 5-methyl benzaldehyde instead of salicyl aldehyde. Again, the resulting ligand was added to Shellsol® D40 at a temperature of 23° C. The solubilty of the ligand was less than 10 g/l.
(§1) Comparative Example A was repeated using 2-hydroxy 3,5-di tert. butyl benzaldehyde instead of salicyl aldehyde. Obtained was a ligand according to formula I having two tert. butyl substitutions on the two aromatic groups A1 and A2. The solubility in Shellsol® D40 at a temperature of 23° C. was higher than 20 g/l.
as §1, with “repeated again, now” for “repeated”, “5-dodecyl” for “3,5-di tert. butyl”, “a dodecyl substitution” for “two tert. butyl substitutions”, “100” for “20”

[1] = Shellsol D40 (aromate-free organic solvent), 23° C.

solubility of the ligand in Shellsol D40	SMILES	solubility of the ligand in Shellsol D40 [1]
less than 10 g/l	Oc1ccccc1C=NC1CCCCC1N=Cc1ccccc1O (stereo not shown) [Comparative Example A, N,N′-bis(salicylidene) cyclohexylene diamine]	
	CCCCCCCCCCCCc1ccc(O)c(C=NC2CCCCC2N=Cc2cc(CCCCCCCCCCCC)ccc2O)c1 (stereo not shown) [Example 2]	higher than 100 g/l
	Cc1ccc(O)c(C=NC2CCCCC2N=Cc2cc(C)ccc2O)c1 (stereo not shown) [B]	less than 10 g/l
	CC(C)(C)c1cc(C=NC2CCCCC2N=Cc2cc(C(C)(C)C)cc(C(C)(C)C)c2O)c(O)c(C(C)(C)C)c1 (stereo not shown) [Example 1]	higher than 20 g/l
